# Values quoted from earlier work in patent US8097283B2, “Methods and compositions for imaging” (Mount Sinai School of Medicine, priority 2004, dated 2012).
# Like-named read-outs stand apart in the source and are kept apart here.
# B1: HDL-apoAI: apoAI moiety of HDL in the circulation of a mouse (protein, UniProt Q00623 25-264, looked up)
# Apolipoprotein A-I: DEPQSQWDKVKDFANVYVDAVKDSGRDYVSQFESSSLGQQLNLNLLENWDTLGSTVSQLQERLGPLTRDFWDNLEKETDWVRQEMNKDLEEVKQKVQPYLDEFQKKWKEDVELYRQKVAPLGAELQESARQKLQELQGRLSPVAEEFRDRMRTHVDSLRTQLAPHSEQMRESLAQRLAELKSNPTLNEYHTRAKTHLKTLGEKARPALEDLRHSLMPMLETLKTQVQSVIDKASETLTAQ
# Key:
# [1] = 0.5 T, 37° C.
# [2] = not given; remark: listed apart in the source
# [3] = mouse
Molecule,r1 [1],also measured
"O=C([O-])CN1CCN(CC(=O)[O-])CCN([C@H](CO)[C@H](O)CO)CCN(CC(=O)[O-])CC1.[Gd+3] (racemic) [Gadobutrol, Gd-DO3A-butrol]",3.6 mM⁻¹ s⁻¹,
"CNC[C@H](O)[C@@H](O)[C@H](O)[C@H](O)CO.CNC[C@H](O)[C@@H](O)[C@H](O)[C@H](O)CO.O=C([O-])CN(CCN(CC(=O)[O-])CC(=O)O)CCN(CC(=O)O)C(COCc1ccccc1)C(=O)[O-].[Gd+3] (stereo not drawn) [Gadobenate, Gd-BOPTA]",4.4 mM⁻¹ s⁻¹,
"O=C([O-])CN(CCN(CC(=O)[O-])CC(=O)O)CCN(CC(=O)[O-])CC(=O)O.[Gd+3] [Gadopenetate, Gd-DTPA]",3.8 mM⁻¹ s⁻¹,Osmolality (concentration 0.5M): 1.96 osmol/kg; Viscosity ([2]; concentration 0.5M): 2.9 cP
"O=C([O-])CN1CCN(CC(=O)[O-])CCN(CC(=O)[O-])CCN(CC(=O)[O-])CC1.[Gd+3] [Gadoterate, Gd-DOTA]",3.6 mM⁻¹ s⁻¹,
Gd-DTPA-BMEA [Gadoversetamide],4.7 mM⁻¹ s⁻¹,
Gd-HPDO3A [Gadoteridol],3.7 mM⁻¹ s⁻¹,
Mn-DPDP [Mangafodipir],1.9 mM⁻¹ s⁻¹,Osmolality (concentration 0.01M): 0.29 osmol/kg; Viscosity ([2]; concentration 0.01M): 0.7 cP
B1,,t1/2 in the circulation [3]: roughly 10 h
